Literature values, collected in patent US20240066056A1, “Formulations of a Prophylactic Nasal Spray and Methods of Use and Manufacture Thereof” (priority 2020, published 2024).

Key:
[1] = cold and mild-warm water and alcohol
[2] = system: SARS-CoV-2; conditions: within 30 seconds of contact
[3] = system: bacteria; conditions: after an application of povidone-iodine

Substance: Povidone-iodine [PVP-I]
- solubility [1]: soluble in cold and mild-warm water and alcohol
- virus killed (in vitro virucidal activity) [2]: 99.99%
- duration of bactericidal action after application [3]: up to eight
